Assay results taken from patent publication US5789386A, “Fluorine-containing anthracycline derivatives having hydroxyl groups(s) mono- or di-o-aminoalkanoylated in the sugar moiety thereof” (priority 1995, dated 1998).
Converted amounts (≈) assume the structure as drawn. Read-outs that look alike come from different tables or passages of the source.

Tests used:
Leukemia L-1210 cells = assay: Antitumor test against leukemia L-1210 in CDF1 mice (T/C, %); type: in vivo, mouse (CDF1); conditions: for % Increase in life-span (T/C, %): 9 days; for percentage (%) of increase in life-span (T/C, %) at maximum: 2.5 mg/kg/day to 5 mg/kg/day; for percentage (%) of increase in life-span (T/C, %) at maximum / development of toxicity (in words): L-1210 mice; for development of toxicity (in words): daunomycin, adriamycin 2.5 mg/kg/day to 5 mg/kg/day
Description: Thus, to evaluate the antitumor effects of the new compounds according to the first aspect of this invention against experimental tumors in animals, CDF1 mice (four mice per group) were intraperitoneally transplanted with cells of Leukemia L-1210 at an amount of 1×10^5 cells/mouse. Since an elapsed time of 24 hours from the transplantation of the leukemia cells, a test compound according to this invention was administered intraperitoneally to the mice under test for 9 consecutive days once per day. […] While, mice of the control group (the untreated group) were administered with only physiological saline after the transplantation of the L-1210 cells. During the observation period, the numbers of the surviving mice in the treated group and in the control group were counted, and the mean survival days of mice in the treated group and in the control group were then calculated. From the mean survival day (C) of the untreated mice of the control group and the mean survival day (T) of the treated mice of the treated group, there were evaluated percentages (%) of the increase in the life-span of the treated mice, as T/C %. For a comparison purpose, 7-O-(2,6-dideoxy-2-fluoro-α-L-talopyranosyl)daunomycinone (abbreviation: FT-DM); 7-O-(2,6-dideoxy-2-fluoro-α-L-talopyranosyl)adriamycinone(abbreviation: FT-ADM); and adriamycin were also tested in the same manner as above. Incidentally, the mean survival day of mice of the control group (the untreated group) was amounting to 8 to 9 days, and the mean survival day of mice of the comparative groups having received the administration of adriamycin was varying dependently on the dosage of adriamycin.
Notes; Asterisks (*) indicate that development of toxicity such as
toxicityrelated death or a body weight loss was observed on the
corresponding mice tested.

[1] = tested on: adriamycin-resistant P388 cells (P388/ADR); assay: In vitro growth inhibition of adriamycin-resistant P388 cells (P388/ADR), 72 hours; type: cell-based; conditions: Mus musculus
[2] = tested on: mouse leukemia, P388 cells; assay: In vitro growth inhibition of P388 cells, 72 hours; type: cell-based
[3] = cited from earlier work
experimental tumors = conditions: test animals; background, earlier applications; cited from earlier work
[4] = low dosages which give high antitumor effects; test animals; cited from earlier work
[5] = 0.3 mg/kg/day i.p., ">" = at least one of four mice survived 60 days or longer
[6] = 0.6 mg/kg/day i.p., ">" = at least one of four mice survived 60 days or longer
[7] = 1.25 mg/kg/day i.p., ">" = at least one of four mice survived 60 days or longer
[8] = 2.5 mg/kg/day i.p., ">" = at least one of four mice survived 60 days or longer
[9] = 5 mg/kg/day i.p., ">" = at least one of four mice survived 60 days or longer

In the case of `COc1cccc2c1C(=O)c1c(O)c3c(c(O)c1C2=O)C[C@@](O)(C(=O)CO)C[C@@H]3O[C@H]1C[C@H](N)[C@H](O)[C@H](C)O1` [Adriamycin, adriamycin, reference compound], the “% Increase in life-span (T/C, %)” value (Leukemia L-1210 cells; 0.15 mg/kg/day i.p.) is reported as 140%, the “% Increase in life-span (T/C, %)” value (Leukemia L-1210 cells; [5]) is reported as 132% and the “% Increase in life-span (T/C, %)” value (Leukemia L-1210 cells; [6]) is reported as 208%. For the same compound, the “% Increase in life-span (T/C, %)” value (Leukemia L-1210 cells; [7]) was 330%, the “% Increase in life-span (T/C, %)” value (Leukemia L-1210 cells; [8]) was 273% and the “percentage (%) of increase in life-span (T/C, %) at maximum” value (Leukemia L-1210 cells) was “approximately 330%”. For the same compound, the “% Increase in life-span (T/C, %)” value (Leukemia L-1210 cells; [9]) was 177%, the “development of toxicity (in words)” value (Leukemia L-1210 cells) was “being accompanied by development of toxicity” and the IC50 ([1]; 72 h) was 1.3 µg/mL (≈ 2.39 µM). The IC50 ([2]; P388, 72 h) was 0.033 µg/mL (≈ 0.0607 µM) and the “serious side-effects (in words)” value ([3]; clinical use, many instances) was “serious side-effects such as leukocytopenia, alopecia, myocardiopathy and others”.
In the case of `COc1cccc2c1C(=O)c1c(O)c3c(c(O)c1C2=O)C[C@@](O)(C(=O)CO)C[C@@H]3O[C@@H]1O[C@@H](C)[C@@H](OC(=O)[C@@H](N)Cc2ccccc2)[C@@H](OC(=O)[C@@H](N)Cc2ccccc2)[C@H]1F` [Compound 11c, 7-O-(2,6-dideoxy-2-fluoro-3,4-di-O-L-phenylalanyl-α-L-talopyranosyl)adriamycinone], the “% Increase in life-span (T/C, %)” value (Leukemia L-1210 cells; 0.15 mg/kg/day i.p.) is reported as 123%, the “% Increase in life-span (T/C, %)” value (Leukemia L-1210 cells; [5]) is reported as 130% and the “% Increase in life-span (T/C, %)” value (Leukemia L-1210 cells; [6]) is reported as 143%. The “% Increase in life-span (T/C, %)” value (Leukemia L-1210 cells; [7]) was 170%, the “% Increase in life-span (T/C, %)” value (Leukemia L-1210 cells; [8]) was 177% and the “% Increase in life-span (T/C, %)” value (Leukemia L-1210 cells; [9]) was 253%. It also gave an IC50 ([1]; 72 hours, test compounds as trifluoroacetate, read-out: IC50) of 0.14 µg/mL (≈ 0.163 µM) and an IC50 ([2]; P388, 72 hours, test compounds as trifluoroacetate, read-out: IC50) of 0.026 µg/mL (≈ 0.0303 µM).
For `COc1cccc2c1C(=O)c1c(O)c3c(c(O)c1C2=O)C[C@@](O)(C(C)=O)C[C@@H]3O[C@H]1C[C@H](N)[C@H](O)[C@H](C)O1` [daunomycin, reference compound], the “percentage (%) of increase in life-span (T/C, %) at maximum” value (Leukemia L-1210 cells) is given as “approximately 330%”, the “development of toxicity (in words)” value (Leukemia L-1210 cells) is given as “being accompanied by development of toxicity” and the “serious side-effects (in words)” value ([3]; in vivo) is given as “serious side-effects such as leukocytopenia, alopecia, myocardiopathy and others”.
In the case of `COc1cccc2c1C(=O)c1c(O)c3c(c(O)c1C2=O)C[C@@](O)(C(=O)CO)C[C@@H]3O[C@H]1C[C@H](O)[C@H](O)[C@H](C(F)(F)F)O1` [formula (D), 7-O-(2,6-dideoxy-6,6,6-trifluoro-α-L-lyxo-hexopyranosyl)adriamycinone], the “anticancer or antitumor activity (in words)” value (experimental tumors) is given as “high anticancer or antitumor activity” and the “development of acute toxicity (in words)” value [4] is given as “development of acute toxicity does not take place”.
